Values quoted from earlier work in patent US20260356885A1, “PROCESS FOR MANUFACTURING AN ANTIBIOTIC MACROCYCLIC PEPTIDE” (Hoffmann-La Roche Inc., priority 2022, published 2026).

Test system: Acinetobacter baumannii
Conditions: statement in words, as discussed in WO2019206853; no test or value given

**Q.** For `CN1C(=O)[C@H](CCCCN)NC(=O)[C@H](CCCN)NCc2cccnc2Sc2cccc(-c3ccc(C(=O)O)cc3)c2CNC(=O)[C@@H]1Cc1c[nH]c2ccccc12` [compound of formula (I), 4-[(11S,14S,17S)-14-(4-Aminobutyl)-11-(3-aminopropyl)-17-(1H-indol-3-ylmethyl)-16-methyl-12,15,18-trioxo-2-thia-4, 10, 13, 16, 19-pentazatricyclo[19.4.0.03,8]pentacosa-1 (25),3 (8), 4,6,21,23-hexaen-22-yl]benzoic acid], which “antibiotic action, selective against Acinetobacter baumannii” value is on record?
**A.** Its value is “potent antibiotic with selective action against Acinetobacter baumannii”.
